Reference: patent publication US7723299B2, “Methods for treating rheumatoid arthritis using a CTLA-4 fusion protein” (ForHumanTech. Co., Ltd., priority 2005, dated 2010)
No end group written: not given here.

Tests used:
[1] = tested on: HeLa, HepG2, HaCat and NIH3T3; assay: Transduction efficiency in various cell lines, X-gal staining; type: cell-based; settings: 1 hour incubation with Hph-1-β-gal
Protocol: FIG. 1C are photographs of transduction efficiency of Hph-1 in several cell lines, including HeLa, HepG2, HaCat and NIH3T3. After 1 hour incubation with Hph-1-β-gal, cells were fixed and stained with X-gal solution. The images were then captured by fluorescence microscopy.
After the Hph-1-β-gal construct was transduced into each cell line for 1 hour, the cells were washed with PBS and fixed immediately. Then, the fixed cells were incubated with X-Gal solution for 1-3 hours at 37° C. The mice tissue samples from the liver, kidney, heart, lung, spleen and brain were isolated at 12 hours after i.p. injection of Hph-1-β-gal, sectioned (in 10- and 50-μm sections), and assayed using an X-Gal staining kit (Roche) (Schwarze S. R., et al., Science 285:1569-1572 (1999)). The image was captured by fluorescence microscopy (Nikon). Transduction capacity of Hph-1-β-gal was also analyzed by western blot analysis. […] Bound antibody was detected using horseradish peroxidase-conjugated antibody to mouse IgG (1:5,000), followed by enhanced chemiluminescence (Pierce). To monitor the localization of the Hph-1-PTD-eGFP fusion protein, Hela cells were incubated with 10 μM of Hph-1-eGFP fusion protein for 30 min and the fluorescence of eGFP was analyzed by confocal microscopy (Bio Rad). […]

Jurkat (E6.1) cells = assay: Transduction efficiency and kinetics of Hph-1-β-gal, western blot; type: cell-based
Protocol: After the Hph-1-β-gal construct was transduced into each cell line for 1 hour, the cells were washed with PBS and fixed immediately. Then, the fixed cells were incubated with X-Gal solution for 1-3 hours at 37° C. The mice tissue samples from the liver, kidney, heart, lung, spleen and brain were isolated at 12 hours after i.p. injection of Hph-1-β-gal, sectioned (in 10- and 50-μm sections), and assayed using an X-Gal staining kit (Roche) (Schwarze S. R., et al., Science 285:1569-1572 (1999)). The image was captured by fluorescence microscopy (Nikon). Transduction capacity of Hph-1-β-gal was also analyzed by western blot analysis. Equal numbers of cells were solubilized in SDS-PAGE sample buffer and the proteins were resolved on a 12% gel, and blotted onto PVDF, which was probed with monoclonal antibody (1:1,000) to β-gal (Cell Signaling). Bound antibody was detected using horseradish peroxidase-conjugated antibody to mouse IgG (1:5,000), followed by enhanced chemiluminescence (Pierce). To monitor the localization of the Hph-1-PTD-eGFP fusion protein, Hela cells were incubated with 10 μM of Hph-1-eGFP fusion protein for 30 min and the fluorescence of eGFP was analyzed by confocal microscopy (Bio Rad).
Using the purified Hph-1-β-gal fusion protein or the control β-gal protein, transduction efficiency was analyzed by western blot analysis in Jurkat (E6.1) cells. […] (FIG. 11B).

[2] = tested on: Jurkat T cells or primary human CD4^+ T cells; assay: Induction of CD69 and CD25 on activated T cells, FACS; type: cell-based; settings: anti-CD28 mAb and plate-bound anti-CD3 mAb stimulation
Protocol: (§1) Primary human CD4^+ T cells were purified from buffy coats from healthy donors. PBMC were isolated by density gradient centrifugation using Histopaque (Sigma). The lymphocyte layer was collected and CD4^+ T cells were isolated by MACS column using CD4 microbeads (Miltenyi Biotec) (Busch R., et al., J. Immunol. Methods 286:97-109 (2004)).
(§2) One million Jurkat (E6.1) cells or primary human CD4^+ T cells were treated with Hph-1-ctCTLA-4 for 1 hour, then washed with PBS and incubated with 0.25 μg of anti-CD28 mAb (Pharmingen) for 20 min at 4° C. The anti-CD28 mAb bound cells were further activated in 0.05 μg of anti-CD3 mAb (Pharmingen) coated plates for 20 hours. Each cell was stained with anti-CD69-PE and anti-CD25-FITC antibodies (Pharmingen) and analyzed by FACS calibur (Becton Dickinson). The supernatant in each well was analyzed for the level of secreted IL-2 by ELISA (R&D system).
(§3) To examine whether the delivered Hph-1-ctCTLA-4 can inhibit T cell activation, Jurkat T cells or primary human CD4^+ T cells were treated with Hph-1-ctCTLA-4 and stimulated with anti-CD28 mAb and plate-bound anti-CD3 mAb. The levels of activation-induced surface proteins such as CD69 and CD25 were analyzed by FACS.

OVA-challenged mice = assay: OVA-induced allergic asthma model; settings: for histological examination of lung tissues, infiltration of inflammatory cells / infiltration of inflammatory cells (eosinophils, macrophages, neutrophils, lymphocytes) into BAL fluid: OVA challenge; for infiltration of inflammatory cells (eosinophils, macrophages, neutrophils, lymphocytes) into BAL fluid: intra-nasal pretreatment
[3] = tested on: Jurkat T cells and primary human CD4^+ T cells; assay: IL-2 secretion of T cells activated with anti-CD3 and anti-CD28 mAbs, ELISA; type: cell-based; settings: for inhibition of induction of IL-2 secretion: Jurkat or human CD4^+ T cells, fusion and control proteins
Protocol: as §1, §2, §3

Zap70, ERK and JNK = assay: Tyrosine phosphorylation of signaling mediators after TcR stimulation; type: cell-based; settings: T cells
Jurkat T cells = assay: Transduction efficiency and kinetics of Hph-1-ctCTLA-4, intracellular staining; type: cell-based
Protocol: Transduction efficiency of Hph-1-HA-ctCTLA-4 was analyzed by intracellular staining using HA-fluorescein mAb (Cell Signaling). After cells were permeablized by cytofix/cytoperm solution (Pharmingen) and incubated with HA-fluorescein mAb at 4° C. for 30 min. Intracellular fluorescence was determined by FACS calibur (Becton Dickinson).
By taking advantage of the capacity of Hph-1-PTD to deliver a large target protein into the cells or organs in vivo through nasal airway, a fusion protein of Hph-1-PTD and the cytoplasmic domain of CTLA-4 (Hph-1-PTD-ctCTLA-4) was constructed as described in FIG. 3A, to be used for local suppression of the immune response in an asthma model. We constructed control proteins comprised of ctCTLA-4 without Hph-1-PTD and Hph-1-ctCTLA-4YF, in which two tyrosine residues essential for its negative function were mutated into phenylalanine. The transduction efficiency of Hph-1-ctCTLA-4 was tested in Jurkat T cells, which are known not to express CTLA-4 on the surface. These cells were treated with different concentrations of Hph-1-ctCTLA-4 for different periods of time, and both the transduction efficiency and kinetics were analyzed by intracellular staining.

[4] = single pretreatment, 25 μg, OVA-challenged mice

Substance	cells positive for β-gal enzyme activity [1] [%]	reduction of transduction efficiency at 4° C. (Jurkat (E6.1) cells; 4° C.) [%]	concentration dependence of protein transduction (Jurkat (E6.1) cells; Jurkat (E6.1) cells)	induction of surface marker proteins CD69 and CD25 [2]	histological examination of lung tissues, infiltration of inflammatory cells (OVA-challenged mice)	inflammatory index in the lung (OVA-challenged mice; OVA-challenged mice, pretreated)	infiltration of inflammatory cells (eosinophils, macrophages, neutrophils, lymphocytes) into BAL fluid (OVA-challenged mice; 25 μg)	OVA-induced airway hyper-responsiveness to methacholine (OVA-challenged mice; nebulized methacholine)	neutrophil and macrophage infiltration (OVA-challenged mice; single administration of about 1 mg/kg through the nasal route before the first OVA challenge)	generation of IFN-γ and TGF-β in BAL fluid (OVA-challenged mice; [4])	production of eotaxin and Th2 type cytokines (IL-5, IL-6, IL-13) in BAL fluid (OVA-challenged mice; [4])	concentration that effectively blocks T cell activation [3] [pM]	level of inhibition of IL-2 secretion compared with CsA ([3]; 10 pM of Hph-1-ctCTLA-4 versus CsA)	inhibition of induction of IL-2 secretion [3]	fold lower concentration than CsA for comparable inhibition of T cell activation ([3]; versus CsA) [fold]	induction of tyrosine phosphorylation of Zap70, ERK and JNK (Zap70, ERK and JNK)	time to maximal levels of intracellular protein (Jurkat T cells; after incubation) [min]	transduction into the cells (Jurkat T cells; intracellular staining)
Hph-1-PTD: protein transduction domain of 11 amino acids (YARVRRRGPRR) from human transcriptional factor Hph-1; tested as β-gal fusion (also: tested as β-gal fusion; listed as Homo sapiens)	~100	40	concentration-dependent manner	–	–	–	–	–	–	–	–	–	–	–	–	–	–	–
Hph-1-ctCTLA-4: fusion protein of Hph-1-PTD and the cytoplasmic domain of CTLA-4 (KMLKKRSPLTTGVYVKMPPTEPECEKQFQPYFIPIN; ctCTLA-4)	–	–	–	significantly inhibited	Inflammatory cells could not infiltrate through the mucus	significantly reduced	prevent against the infiltration of these inflammatory cells into the BAL fluid to the levels observed in the PBS-challenged control group	substantially attenuated	effectively inhibited	not found to affect	significantly inhibited	10	better or equivalent	concentration dependent manner at picomolar range	1000	markedly inhibited	60	concentration-dependent
Hph-1-ctCTLA-4YF: control protein in which two tyrosine residues essential for its negative function were mutated into phenylalanine (KMLKKRSPLTTGVFVKMPPTEPECEKQFQPFFIPIN; ctCTLA-4YF) [reference compound]	–	–	–	did not show any inhibition	not observed	–	did not show these inhibitory effects	–	–	–	no inhibition	–	–	neither ctCTLA-4 without Hph-1-PTD nor Hph-1-ctCTLA-4YF blocked IL-2 secretion	–	–	–	–
